Assay results: patent US8445676B2, “Pyrrolotriazine kinase inhibitors” (Bristol-Myers Squibb Company, priority 2008, dated 2013)
Read-outs that look alike come from different tables or passages of the source.

Columns and labels:
JAK2 = JAK2 (Homo sapiens, UniProt O60674); assay: JAK2 Tyrosine Kinase Assay; type: biochemical
Outline: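 Reaction of JAK2 with fluorescent substrate run 60 min at room temperature and stopped with EDTA. Substrate and phosphorylated product separated electrophoretically on a Caliper LabChip. Compounds tested at eleven concentrations in duplicate, with IC50 from non-linear regression.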

JAK3 = target: T1, JAK3 (Homo sapiens, UniProt P52333); assay: JAK3 Tyrosine Kinase Assay; type: biochemical; settings: ATP 8 μM; JAK3 2.5 nM; 60 min room temperature
T1 sequence (P52333 1-1124): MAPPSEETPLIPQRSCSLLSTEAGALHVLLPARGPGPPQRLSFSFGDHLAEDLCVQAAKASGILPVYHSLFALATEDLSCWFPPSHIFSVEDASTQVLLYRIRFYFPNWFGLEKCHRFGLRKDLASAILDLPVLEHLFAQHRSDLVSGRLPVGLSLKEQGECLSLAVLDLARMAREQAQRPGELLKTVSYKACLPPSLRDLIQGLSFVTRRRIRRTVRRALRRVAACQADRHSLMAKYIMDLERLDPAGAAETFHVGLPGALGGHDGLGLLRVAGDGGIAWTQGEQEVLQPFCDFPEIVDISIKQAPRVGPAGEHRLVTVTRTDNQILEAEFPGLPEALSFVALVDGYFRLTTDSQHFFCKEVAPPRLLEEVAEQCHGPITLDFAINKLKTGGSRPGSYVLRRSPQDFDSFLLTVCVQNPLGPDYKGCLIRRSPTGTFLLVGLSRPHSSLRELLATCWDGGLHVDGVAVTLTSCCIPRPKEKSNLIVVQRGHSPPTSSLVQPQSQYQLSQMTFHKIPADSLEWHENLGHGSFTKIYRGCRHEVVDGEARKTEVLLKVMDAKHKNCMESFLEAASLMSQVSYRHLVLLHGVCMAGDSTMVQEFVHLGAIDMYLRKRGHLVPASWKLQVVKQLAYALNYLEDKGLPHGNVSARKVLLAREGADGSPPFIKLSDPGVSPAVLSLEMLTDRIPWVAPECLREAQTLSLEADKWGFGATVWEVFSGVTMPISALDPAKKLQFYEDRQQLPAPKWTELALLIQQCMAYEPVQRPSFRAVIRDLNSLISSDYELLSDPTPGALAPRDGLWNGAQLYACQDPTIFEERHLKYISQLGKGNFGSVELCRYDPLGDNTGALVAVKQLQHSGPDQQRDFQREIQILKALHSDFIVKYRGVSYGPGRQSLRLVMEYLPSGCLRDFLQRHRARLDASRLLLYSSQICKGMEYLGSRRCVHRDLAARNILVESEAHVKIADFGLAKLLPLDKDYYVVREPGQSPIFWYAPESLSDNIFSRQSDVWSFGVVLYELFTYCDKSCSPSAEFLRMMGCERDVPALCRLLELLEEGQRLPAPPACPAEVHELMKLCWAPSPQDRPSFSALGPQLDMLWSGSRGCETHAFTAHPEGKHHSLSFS
Method: JAK3 Tyrosine Kinase Assay
The assays were performed in V-bottom 384-well plates. […] The reaction was initiated by the combination of JAK3 with substrates and test compounds. The reaction was incubated at room temperature for 60 min. and terminated by adding 45 μl of 35 mM EDTA to each sample. The reaction mixture was analyzed on the Caliper LabChip 3000 by electrophoretic separation of the fluorescent substrate and phosphorylated product. […] The final concentration of reagents in the assays is ATP, 8 μM; JAK3 fluorescent peptide, 1.5 μM; JAK3, 2.5 nM; and DMSO, 1.6%. […] Compounds were dissolved at 10 mM in dimethylsulfoxide (DMSO) and evaluated at eleven concentrations, each in duplicate. IC50 values were derived by non-linear regression analysis.

[1] = ATP 30 μM, JAK2 1 nM, 60 min room temperature, read-out: Jak2(IC50)
[2] = list of named compounds, read-out: IC50 in the JAK2 assay

Chain of JAK2 (O60674 whole entry): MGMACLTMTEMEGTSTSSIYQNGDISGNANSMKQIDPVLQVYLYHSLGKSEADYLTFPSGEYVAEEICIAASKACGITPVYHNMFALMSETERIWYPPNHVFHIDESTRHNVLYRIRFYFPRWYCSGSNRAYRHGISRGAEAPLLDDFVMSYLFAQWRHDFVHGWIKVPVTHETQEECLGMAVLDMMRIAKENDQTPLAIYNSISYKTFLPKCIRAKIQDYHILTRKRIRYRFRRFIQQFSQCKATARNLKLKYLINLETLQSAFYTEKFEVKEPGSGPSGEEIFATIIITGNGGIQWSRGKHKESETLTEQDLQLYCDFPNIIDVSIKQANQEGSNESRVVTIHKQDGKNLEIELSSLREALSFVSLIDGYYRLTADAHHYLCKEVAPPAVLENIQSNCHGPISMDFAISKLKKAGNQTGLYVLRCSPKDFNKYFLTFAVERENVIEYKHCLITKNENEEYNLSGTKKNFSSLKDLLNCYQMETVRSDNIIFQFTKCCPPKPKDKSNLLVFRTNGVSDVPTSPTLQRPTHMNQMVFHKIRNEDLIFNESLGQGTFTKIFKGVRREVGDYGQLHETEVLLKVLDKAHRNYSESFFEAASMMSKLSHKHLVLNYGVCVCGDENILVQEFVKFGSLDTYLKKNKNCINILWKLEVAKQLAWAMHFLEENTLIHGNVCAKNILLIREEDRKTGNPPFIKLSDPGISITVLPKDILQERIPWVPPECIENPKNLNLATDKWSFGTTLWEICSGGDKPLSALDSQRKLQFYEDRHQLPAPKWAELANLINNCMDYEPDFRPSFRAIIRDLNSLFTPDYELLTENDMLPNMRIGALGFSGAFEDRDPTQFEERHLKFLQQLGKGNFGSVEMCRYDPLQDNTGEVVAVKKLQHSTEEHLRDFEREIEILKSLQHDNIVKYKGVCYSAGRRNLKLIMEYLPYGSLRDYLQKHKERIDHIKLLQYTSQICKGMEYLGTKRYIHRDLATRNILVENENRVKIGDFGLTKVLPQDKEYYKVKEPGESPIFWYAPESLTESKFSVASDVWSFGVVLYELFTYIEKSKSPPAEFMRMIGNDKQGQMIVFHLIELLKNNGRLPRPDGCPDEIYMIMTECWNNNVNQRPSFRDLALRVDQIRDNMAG

| SMILES | IC50 (JAK2; [1]) [nM] | IC50 (JAK3) [nM] | IC50 (JAK2; [2]) [nM] |
| --- | --- | --- | --- |
| Cc1cc(Nc2nc(N3CCN(C(=O)Cc4c(Cl)cccc4Cl)CC3)nn3cccc23)n[nH]1 [Example 38, 2-(4-((2,6-dichlorophenyl)acetyl)-1-piperazinyl)-N-(5-methyl-1H-pyrazol-3-yl)pyrrolo[2,1-f][1,2,4]triazin-4-amine] | 1.12 | 30 |  |
| Cc1cc(Nc2nc(N3CCN(C(=O)c4c(F)cccc4F)CC3)nn3cccc23)n[nH]1 [Example 20, 2-(4-(2,6-difluorobenzoyl)-1-piperazinyl)-N-(5-methyl-1H-pyrazol-3-yl)pyrrolo[2,1-f] [1,2,4]triazin-4-amine] | 8.14 | 50 |  |
| CO[C@H](C(=O)N1CCN(c2nc(Nc3cc(C)[nH]n3)c3cccn3n2)CC1)c1ccccc1 [Example 90, 2-(4-((2S)-2-methoxy-2-phenylacetyl)-1-piperazinyl)-N-(5-methyl-1H-pyrazol-3-yl)pyrrolo[2,1-f] [1,2,4]triazin-4-amine] | 8.15 | 70 |  |
| Cc1cc(Nc2nc(N3CCN(C(=O)[C@@H](NC(=O)OC(C)(C)C)c4ccc(F)cc4)CC3)nn3cccc23)n[nH]1 [Example 132, tert-butyl((1S)-1-(4-fluorophenyl)-2-(4-(4-((5-methyl-1H-pyrazol-3-yl)amino)pyrrolo[2,1-f][1,2,4]triazin-2-yl)-1-piperazinyl)-2-oxoethyl)carbamate] | 0.971 | 30 |  |
| CCC(CO)(CO)C(=O)N1CCN(c2nc(Nc3cc(C)[nH]n3)c3cccn3n2)CC1 [Example 152, 2-ethyl-2-((4-(4-((5-methyl-1H-pyrazol-3-yl)amino)pyrrolo[2,1-f] [1,2,4]triazin-2-yl)-1-piperazinyl)carbonyl)-1,3-propanediol] | 300 | 2360 |  |
| Cc1cc(Nc2nc(N3CCN(C(=O)c4ncccn4)CC3)nn3cccc23)n[nH]1 [Example 95, N-(5-methyl-1H-pyrazol-3-yl)-2-(4-(2-pyrimidinylcarbonyl)-1-piperazinyl)pyrrolo[2,1-f] [1,2,4]triazin-4-amine] | 6.65 | 90 |  |
| Cc1cc(Nc2nc(N3CCN(C(=O)Cc4cccc(C(F)(F)F)c4)CC3)nn3cccc23)n[nH]1 [Example 48, N-(5-methyl-1H-pyrazol-3-yl)-2-(4-((3-(trifluoromethyl)phenyl)acetyl)-1-piperazinyl)pyrrolo[2,1-f][1,2,4]triazin-4-amine] | 0.903 | 20 |  |
| CCC(O)(CC)C(=O)N1CCN(c2nc(Nc3cc(C)[nH]n3)c3cccn3n2)CC1 [Example 164, 3-((4-(4-((5-methyl-1H-pyrazol-3-yl)amino)pyrrolo[2,1-f] [1,2,4]triazin-2-yl)-1-piperazinyl)carbonyl)-3-pentanol] | 240 | 1490 |  |
| Cc1ccc(C2(C(=O)N3CCN(c4nc(Nc5cc(C)[nH]n5)c5cccn5n4)CC3)CC2)cc1 [Example 187, 2-(4-((1-(4-methylphenyl)cyclopropyl)carbonyl)-1-piperazinyl)-N-(5-methyl-1H-pyrazol-3-yl)pyrrolo[2,1-f][1,2,4]triazin-4-amine] | 6.83 | 200 |  |
| Cc1cc(Nc2nc(N3CCN(C(=O)C4(c5ccc(F)cc5)CCCCC4)CC3)nn3cccc23)n[nH]1 [Example 126, 2-(4-((1-(4-fluorophenyl)cyclohexyl)carbonyl)-1-piperazinyl)-N-(5-methyl-1H-pyrazol-3-yl)pyrrolo[2,1-f] [1,2,4]triazin-4-amine] | 150 | 1410 |  |
| Cc1cc(Nc2nc(N3CCN(C(=O)C(C)(C)c4ccccc4)CC3)nn3cccc23)n[nH]1 [Example 7, 2-(4-(2-methyl-2-phenylpropanoyl)-1-piperazinyl)-N-(5-methyl-1H-pyrazol-3-yl)pyrrolo[2,1-f] [1,2,4]triazin-4-amine] | 320 | 2060 |  |
| Cc1cc(Nc2nc(N3CCN(C(=O)c4ccns4)CC3)nn3cccc23)n[nH]1 [Example 106, 2-(4-(5-isothiazolylcarbonyl)-1-piperazinyl)-N-(5-methyl-1H-pyrazol-3-yl)pyrrolo[2,1-f] [1,2,4]triazin-4-amine] | 7.14 | 40 |  |
| Cc1cc(Nc2nc(N3CCN(C(=O)C(C)(C)NC(=O)OC(C)(C)C)CC3)nn3cccc23)n[nH]1 [Example 150, tert-butyl (1,1-dimethyl-2-(4-(4-((5-methyl-1H-pyrazol-3-yl)amino)pyrrolo[2,1-f][1,2,4]triazin-2-yl)-1-piperazinyl)-2-oxoethyl)carbamate] | 700 | 13700 |  |
| COc1cc(F)c(CC(=O)N2CCN(c3nc(Nc4cc(C)[nH]n4)c4cccn4n3)CC2)c(F)c1 [Example 139, 2-(4-((2,6-difluoro-4-methoxyphenyl)acetyl)-1-piperazinyl)-N-(5-methyl-1H-pyrazol-3-yl)pyrrolo[2,1-f][1,2,4]triazin-4-amine] |  | 70 |  |
| COc1ccc(CC(=O)N2CCN(c3nc(Nc4cc(C)[nH]n4)c4cccn4n3)CC2)cc1 [Example 45, 2-(4-((4-methoxyphenyl)acetyl)-1-piperazinyl)-N-(5-methyl-1H-pyrazol-3-yl)pyrrolo[2,1-f][1,2,4]triazin-4-amine] | 0.891 | 10 |  |
| Cc1cc(Nc2nc(N3CCN(C(=O)[C@@](C)(O)c4ccccc4)CC3)nn3cccc23)n[nH]1 [Example 211, (2S)-1-(4-(4-((5-methyl-1H-pyrazol-3-yl)amino)pyrrolo[2,1-f][1,2,4]triazin-2-yl)-1-piperazinyl)-1-oxo-2-phenyl-2-propanol] | 590 | 9480 |  |
| Cc1cc(Nc2nc(N3CCN(C(=O)C(C)(C)N(C)C(=O)OC(C)(C)C)CC3)nn3cccc23)n[nH]1 [Example 158, tert-butyl(1,1-dimethyl-2-(4-(4-((5-methyl-1H-pyrazol-3-yl)amino)pyrrolo[2,1-f] [1,2,4]triazin-2-yl)-1-piperazinyl)-2-oxoethyl)methylcarbamate] | 300 | 1740 |  |
| Cc1cc(Nc2nc(N3CCN(C(=O)Cc4ccccc4C(F)(F)F)CC3)nn3cccc23)n[nH]1 [Example 10, N-(5-methyl-1H-pyrazol-3-yl)-2-(4-((2-(trifluoromethyl)phenyl)acetyl)-1-piperazinyl)pyrrolo[2,1-f][1,2,4]triazin-4-amine] | 0.604 | 9.84 |  |
| COc1cccc(CC(=O)N2CCN(c3nc(Nc4cc(C)[nH]n4)c4cccn4n3)CC2)c1 [Example 49, 2-(4-((3-methoxyphenyl)acetyl)-1-piperazinyl)-N-(5-methyl-1H-pyrazol-3-yl)pyrrolo[2,1-f][1,2,4]triazin-4-amine] | 7.9 | 170 |  |
| Cc1cc(Nc2nc(N3CCN(C(=O)Cc4ccc(C(F)(F)F)cc4)CC3)nn3cccc23)n[nH]1 [Example 43, N-(5-methyl-1H-pyrazol-3-yl)-2-(4-((4-(trifluoromethyl)phenyl)acetyl)-1-piperazinyl)pyrrolo[2,1-f][1,2,4]triazin-4-amine] | 2660 | 50000 |  |
| Cc1cc(Nc2nc(N3CCN(C(=O)c4ccccc4C#N)CC3)nn3cccc23)n[nH]1 [2-((4-(4-((5-methyl-1H-pyrazol-3-yl)amino)pyrrolo[2,1-f][1,2,4]triazin-2-yl)-1-piperazinyl)carbonyl)benzonitrile] |  |  | ≤ 5 |
| Cc1cc(Nc2nc(N3CCN(C(=O)c4ccoc4)CC3)nn3cccc23)n[nH]1 [2-(4-(3-furoyl)-1-piperazinyl)-N-(5-methyl-1H-pyrazol-3-yl)pyrrolo[2,1-f][1,2,4]triazin-4-amine] |  |  | ≤ 5 |
